In paper PMC12340956, “Tranylcypromine-Based LSD1 Inhibitors as Useful Agents to Reduce Viability of” (ACS Infectious Diseases, 2025):
Where a name gives a salt, the structure may show the parent alone. Read-outs that look alike come from different tables or passages of the source.

Assays:
[1] = system: newly transformed schistosomula (NTS); test: NTS viability phenotypic screening, 72 h; conditions: for IC50: Schistosoma mansoni, read-out: IC50 (NTS viability)
Procedure: (§4) For NTS and adult worms, transparent flat-bottom 96- and 24-well plates were used, respectively (Sarstedt, Switzerland). For juvenile worms, 48-well plates were used with 3–6 worms per plate and RPMI medium with 5% FCS and 1% penicillin/streptomycin. Compounds were initially tested at 20 and 10 μM in triplicate on NTS and repeated once; each well contained 30–40 NTS. Phenotypic reference points such as motility, morphology, and granularity were used to score incubated parasites’ overall viability (scores from 0 to 3). […] Identified hits from the NTS screening were tested on adult worms. […] The experiment was conducted in duplicate and repeated; standard deviations were calculated from two wells. […] For all in vitro assays, negative controls (DMSO at the highest tested concentration) were included.

[2] = system: human recombinant LSD1-CoREST enzymatic complex; conditions: Table S1, cited from earlier work
NTS = test: Speed-of-action assay in NTS; format: cell-based, Schistosoma mansoni; conditions: for Percentage of effect: NTS; for IC50: Schistosoma mansoni, read-out: IC50 (speed of action, NTS)
From the text: (§1) To better characterize a selection of our LSD1i in vitro, we assessed the onset of their action, defined as the time required for an observable antischistosomal effect. […] For detailed percentages of activity at each time point, refer to the Supporting Information (Tables S2 and S3 in Supporting Information).

adult worms [3] = test: Adult worm viability phenotypic assay, 72 h; conditions: Schistosoma mansoni, read-out: IC50 (adult worm viability)
Procedure: The life cycle is maintained at the Swiss TPH as described previously. Cercariae were obtained from infected snails by exposing them to a strong light source for 3–4 h in pond water.
as §4

[4] = MTT cytotoxicity in RPE cells; format: cell-based; conditions: human, retinal pigment epithelial (RPE) cells; for viability at 72 h, 5 µM / viability at 72 h, 10 µM / viability at 72 h, 25 µM / viability at 72 h, 50 µM: read-out: percentage of viability, 72 h; for IC50 at 72 h: read-out: IC50 (cell viability)
Procedure: (§2) The MTT method was used to evaluate cell viability after 72 h of treatment.
(§3) Human commercial lung diploid fibroblasts (MRC-5), and diploid retinal epithelium cells (RPE) were obtained from the American Type Culture Collection (ATCC) and kindly provided by Dr Francesca Degrassi (CNR IBPM) and maintained in minimal essential medium or DMEM-F12 medium supplemented with fetal calf serum, antibiotics, and nonessential amino acids. Cells were grown at 37 °C, in a humidified atmosphere, with 5% CO2. For experiments, cells were seeded in 200 μL of complete in each well of a 96-well microtiter plate. After 24 h, compounds were added at 5, 10, 25, and 50 μM for 72 h in sextuplicate. MTT was added (0.5 mg/mL), incubated for 4 h at 37 °C, and dissolved in 200 μL of isopropyl alcohol. Absorbance was measured at 570 nm (ELISA reader, DASIT), and cell viability was calculated as viability=(ODoftreatedcells/ODofcontrolcells)×100

[5] = MTT cytotoxicity in MRC-5 cells; format: cell-based; conditions: human, MRC-5 lung diploid fibroblast cells; for viability at 72 h, 5 µM / viability at 72 h, 10 µM / viability at 72 h, 25 µM / viability at 72 h, 50 µM: read-out: percentage of viability, 72 h; for IC50 at 72 h: read-out: IC50 (cell viability)
Procedure: as §2, §3

adult worms [6] = test: Pairing and egg laying of adult worms; format: cell-based, Schistosoma mansoni; conditions: for eggs' number: 20 μM
Procedure: Selected compounds 2, 15, 18, and 19 were tested on adult worms to evaluate their effects on pairing and egg laying.

[7] = system: S. mansoni juvenile forms; test: Speed-of-action assay in juvenile forms; format: cell-based, Schistosoma mansoni; conditions: for IC50: Schistosoma mansoni, read-out: IC50 (speed of action, juvenile forms); for Percentage of effect: juvenile forms
From the text: as §1

[8] = target: T1, human LSD1-CoREST complex (Homo sapiens, UniProt O60341); test: ThermoFAD thermal stability assay; format: binding; conditions: LSD1-CoREST thermal stability
T1 construct: made in house
Procedure: Compounds 14–22 were tested against the human LSD1-CoREST complex to determine their inhibitory activity. […] ThermoFAD assays were then performed to assess the impact of 14–22 on the thermal stability (ΔT m values, Table ) of the LSD1-CoREST complex. The most significant shifts in Tm values corresponded to the strongest binders. […] Compound 22 was not tested, considering its previous negative results.
Protein expression, thermal stability, and inhibition of human LSD1-CoREST were performed using established protocols. […] LSD1-CoREST (0.4 μM) was preincubated with the inhibitor at 25 °C for 10 min in the presence of 5% DMSO. The reaction was initiated by adding an equal volume of the substrate solution to the enzyme–inhibitor mixture, and resorufin fluorescence (excitation at 530–570 nm and emission at 580–590 nm) was detected with a Clariostar plate reader.

[9] = target: T1, human LSD1-CoREST complex; test: HRP-coupled LSD1 inhibition assay; format: biochemical; conditions: 10 min preincubation, read-out: IC50 (hLSD1 direct inhibition)
Procedure: Protein expression, thermal stability, and inhibition of human LSD1-CoREST were performed using established protocols. […] The reaction was initiated by adding an equal volume of the substrate solution to the enzyme–inhibitor mixture, and resorufin fluorescence (excitation at 530–570 nm and emission at 580–590 nm) was detected with a Clariostar plate reader.

[10] = ref 2 (SI: Fioravanti et al., ChemMedChem 2020)
[11] = ref 3 (SI: Fioravanti et al., J Enzyme Inhib Med Chem 2022)
[12] = ref 4 (SI: Rodriguez et al., MedChemComm 2015)

NC1CC1c1ccc(NC(=O)c2ccc(O)c3ncccc23)cc1 (stereo not shown) [Compound 1]
Percentage of reduction of NTS viability, 72 h ([1]; 10 μM): 37.9 ± 0.0%
Percentage of reduction of NTS viability, 72 h ([1]; 20 μM): 45.8 ± 4.2%
IC50 [1]: > 20 µM
IC50 ([2]; ref 1 (SI: Rotili et al., J Med Chem 2014)): < 1 µM

NC1CC1c1ccc(NC(=O)c2ccc(-c3ccccc3)cc2)cc1 (stereo not shown) [Compound 2]
Percentage of effect (NTS; 4 h, 10 μM): 30.77%
Percentage of effect (NTS; 4 h, 20 μM): 38.46%
Percentage of effect (NTS; 24 h, 10 μM): 78.57%
Percentage of effect (NTS; 24 h, 20 μM): 82.14%
Percentage of effect (NTS; 48 h, 10 μM): 87.76%
Percentage of effect (NTS; 48 h, 20 μM): 93.88%
Percentage of effect (NTS; 72 h, 10 μM): 89.80%
Percentage of effect (NTS; 72 h, 20 μM): 100%
IC50 (NTS; 4 h): > 20 µM
IC50 (NTS; 24 h): 5 µM
IC50 (NTS; 48 h): 4 µM
IC50 (NTS; 72 h): 2.3 µM
Percentage of reduction of NTS viability, 72 h ([1]; 0.1 μM): 43.7 ± 2.1%
Percentage of reduction of NTS viability, 72 h ([1]; 1 μM): 56.9 ± 0.9%
Percentage of reduction of NTS viability, 72 h ([1]; 10 μM): 98 ± 1.0%
Percentage of reduction of NTS viability, 72 h ([1]; 20 μM): 100 ± 0.0%
IC50 [1]: 0.26 µM
IC50 (adult worms [3]): > 10 µM
viability at 72 h, 5 µM [4]: 95 ± 9%
viability at 72 h, 10 µM [4]: 82 ± 11%
viability at 72 h, 25 µM [4]: 87 ± 39%
viability at 72 h, 50 µM [4]: 49 ± 9%
IC50 at 72 h [4]: 68.9 µM
viability at 72 h, 5 µM [5]: 29 ± 2%
viability at 72 h, 10 µM [5]: 26 ± 3%
viability at 72 h, 25 µM [5]: 13 ± 3%
viability at 72 h, 50 µM [5]: 10 ± 2%
IC50 at 72 h [5]: 5.9 µM
eggs' number (adult worms [6]; 4 h): 0
eggs' number (adult worms [6]; 8 h): 0
eggs' number (adult worms [6]; 24 h): 0
eggs' number (adult worms [6]; 48 h): 0
eggs' number (adult worms [6]; 72 h): 6
effect on worm pairing (adult worms [6]; adult worms): no impact on worm pairing
IC50 ([7]; 4 h): > 20 µM
IC50 ([7]; 24 h): 16.2 µM
IC50 ([7]; 48 h): > 20 µM
IC50 ([7]; 72 h): 5.9 µM
Percentage of effect ([7]; 4 h, 1 μM): 20%
Percentage of effect ([7]; 4 h, 10 μM): 23.33%
Percentage of effect ([7]; 4 h, 20 μM): 43.64%
Percentage of effect ([7]; 24 h, 1 μM): 24.14%
Percentage of effect ([7]; 24 h, 10 μM): 37.93%
Percentage of effect ([7]; 24 h, 20 μM): 57.69%
Percentage of effect ([7]; 48 h, 1 μM): 32.69%
Percentage of effect ([7]; 48 h, 10 μM): 36.45%
Percentage of effect ([7]; 48 h, 20 μM): 56.25%
Percentage of effect ([7]; 72 h, 1 μM): 39%
Percentage of effect ([7]; 72 h, 10 μM): 39.11%
Percentage of effect ([7]; 72 h, 20 μM): 70.83%
IC50 [2, 10]: 0.05 ± 0.01 µM

NC1CC1c1ccc(NC(=O)c2ccc(-c3ccco3)cc2)cc1 (stereo not shown) [Compound 3]
Percentage of reduction of NTS viability, 72 h ([1]; 10 μM): 36.2 ± 0.9%
Percentage of reduction of NTS viability, 72 h ([1]; 20 μM): 37.50 ± 0.0%
IC50 [1]: > 20 µM
IC50 [2, 11]: 2 µM

NC1CC1c1ccc(NC(=O)c2ccc(-c3ccsc3)cc2)cc1 (stereo not shown) [Compound 4]
Percentage of reduction of NTS viability, 72 h ([1]; 10 μM): 43.1 ± 0.9%
Percentage of reduction of NTS viability, 72 h ([1]; 20 μM): 79.17 ± 0.0%
IC50 [1]: > 10 µM
IC50 (adult worms [3]): > 10 µM
IC50 [2, 11]: 0.34 ± 0.11 µM

CN1CCN(c2cc(C(=O)Nc3ccc(C4CC4N)cc3)ccc2NC(=O)OCc2ccccc2)CC1 (stereo not shown) [Compound 5]
Percentage of reduction of NTS viability, 72 h ([1]; 1 μM): 18.0 ± 1.0%
Percentage of reduction of NTS viability, 72 h ([1]; 10 μM): 100 ± 0.0%
Percentage of reduction of NTS viability, 72 h ([1]; 20 μM): 100 ± 0.0%
IC50 [1]: 1.35 µM
IC50 (adult worms [3]): 2.23 µM
viability at 72 h, 5 µM [4]: 63 ± 33%
viability at 72 h, 10 µM [4]: 72 ± 18%
viability at 72 h, 25 µM [4]: 82 ± 11%
viability at 72 h, 50 µM [4]: 57 ± 10%
IC50 at 72 h [4]: 55.8 µM
viability at 72 h, 5 µM [5]: 75 ± 7%
viability at 72 h, 10 µM [5]: 59 ± 5%
viability at 72 h, 25 µM [5]: 58 ± 2%
viability at 72 h, 50 µM [5]: 39 ± 4%
IC50 at 72 h [5]: 24.3 µM
IC50 [2, 10]: 0.09 ± 0.01 µM

NC1CC1c1ccc(NC(=O)c2ccn(C(=O)OCc3ccccc3)c2)cc1 (stereo not shown) [Compound 6]
Percentage of reduction of NTS viability, 72 h ([1]; 10 μM): 40.0 ± 2.0%
Percentage of reduction of NTS viability, 72 h ([1]; 20 μM): 100 ± 0.0%
IC50 [1]: > 10 µM
IC50 (adult worms [3]): > 20 µM
IC50 [2, 12]: 0.05 ± 0.004 µM

NC1CC1c1ccc(NC(=O)c2cc3ccccc3n2CC(=O)Nc2ccccc2)cc1 (stereo not shown) [Compound 7]
Percentage of reduction of NTS viability, 72 h ([1]; 10 μM): 37.9 ± 0.0%
Percentage of reduction of NTS viability, 72 h ([1]; 20 μM): 66.7 ± 4.2%
IC50 [1]: > 10 µM
IC50 (adult worms [3]): > 20 µM
IC50 [2, 12]: 0.09 ± 0.01 µM

NC1CC1c1ccc(NC(=O)Cc2cccc3ccccc23)cc1 (stereo not shown) [Compound 8]
Percentage of reduction of NTS viability, 72 h ([1]; 10 μM): 46.5 ± 2.6%
Percentage of reduction of NTS viability, 72 h ([1]; 20 μM): 50.0 ± 0.0%
IC50 [1]: > 10 µM

NC1CC1c1ccc(NC(=O)CNC(=O)OCc2ccccc2)cc1 (stereo not shown) [Compound 9]
Percentage of reduction of NTS viability, 72 h ([1]; 10 μM): 37.93 ± 1.7%
Percentage of reduction of NTS viability, 72 h ([1]; 20 μM): 41.7 ± 4.2%
IC50 [1]: > 20 µM
IC50 [2, 12]: 0.3 ± 0.03 µM

NC1CC1c1ccc(NC(=O)C2CCCN2C(=O)OCc2ccccc2)cc1 (stereo not shown) [Compound 10]
Percentage of reduction of NTS viability, 72 h ([1]; 10 μM): 32.8 ± 0.9%
Percentage of reduction of NTS viability, 72 h ([1]; 20 μM): 37.5 ± 4.2%
IC50 [1]: > 20 µM
IC50 [2, 12]: 0.06 ± 0.01 µM

NC1CC1c1ccc(NC(=O)C(Cc2ccccc2)NC(=O)OCc2ccccc2)cc1 (stereo not shown) [Compound 11, benzyl (1-((4-(2-aminocyclopropyl)phenyl)amino)-1-oxo-3-phenylpropan-2-yl)carbamate]
IC50 (adult worms [3]): > 20 µM

NC1CC1c1ccc(NC(=O)C(Cc2c[nH]c3ccccc23)NC(=O)OCc2ccccc2)cc1 (stereo not shown) [Compound 12]
Percentage of reduction of NTS viability, 72 h ([1]; 10 μM): 41.4 ± 1.7%
Percentage of reduction of NTS viability, 72 h ([1]; 20 μM): 50.0 ± 0.0%
IC50 [1]: > 10 µM
IC50 [2, 10]: 0.19 ± 0.03 µM

NC1CC1c1ccc(NC(=O)C(Cc2csc3ccccc23)NC(=O)OCc2ccccc2)cc1 (stereo not shown) [Compound 13]
Percentage of reduction of NTS viability, 72 h ([1]; 10 μM): 36.2 ± 0.9%
Percentage of reduction of NTS viability, 72 h ([1]; 20 μM): 50.0 ± 4.2%
IC50 [1]: > 10 µM
IC50 [2, 10]: 0.08 ± 0.01 µM

Cc1ccc(C(=O)Nc2ccc(C3CC3N)cc2)cc1.Cl (stereo not shown) [Compound 14, N-(4-(2-Aminocyclopropyl)phenyl)-4-methylbenzamide Hydrochloride]
ΔTm [8]: +8 °C
Percentage of reduction of NTS viability, 72 h ([1]; 10 μM): 22.9 ± 2.1%
Percentage of reduction of NTS viability, 72 h ([1]; 20 μM): 41.7 ± 4.2%
IC50 [1]: > 20 µM
IC50 [9]: 0.15 ± 0.02 µM

N#Cc1ccc(C(=O)Nc2ccc(C3CC3N)cc2)cc1 (stereo not shown) [Compound 17, N-(4-(2-Aminocyclopropyl)phenyl)-4-cyanobenzamide Hydrochloride]
ΔTm [8]: +8.5 °C
Percentage of reduction of NTS viability, 72 h ([1]; 10 μM): 25.0 ± 0.0%
Percentage of reduction of NTS viability, 72 h ([1]; 20 μM): 31.2 ± 6.3%
IC50 [1]: > 20 µM
IC50 [9]: 0.15 ± 0.02 µM
